From US20160101109A1, “METHOD OF TREATING ARTHRITIS” (AbbVie Inc., priority 2007, published 2016)
“Also recorded” adds a separate entry of the source.

Legend:
activated B lymphocytes = experiment: lipopolysaccharide stimulation, mouse lymphocyte in vitro activation; assay type: cell-based
[1] = tested on: DBA/1J (H-2q) mice immunized with collagen; experiment: mouse model of arthritis (collagen immunization, zymosan boost); assay type: in vivo; conditions: EXAMPLE A 50 mg/kg per day, dexamethasone 1 mg/kg per day, 3 weeks, p<0.5 versus vehicle control
Procedure: Also, a standard mouse model of arthritis using DBA/1J (H-2q) mice immunized with collagen and boosted with zymosan 21 days later was used to induce disease. The mice were than treated with EXAMPLE A (50 mg/kg per day), vehicle (with no drug) and dexamethasone (1 mg/kg per day) at the first clinical sign of disease. The mice were then evaluated for mean arthritic score (MAS) and paw swelling for 3 weeks after treatment began.

activated T lymphocytes = experiment: mixed-lymphocyte reaction (MLR), mouse lymphocyte in vitro activation; assay type: cell-based
mouse ankles = experiment: total bone volume by microcomputed tomography (μCT) of mouse ankles; assay type: in vivo; conditions: 1.8-mm section of ankle, resolution 18 μm, FIG. 3
Procedure: Still also, total bone volumes were measured by microcomputed tomography (μCT) for a 1.8-mm tall section of mouse ankles from the base of the tibia to the tarsal/metatarsal joints at a resolution of 18 μm.

[2] = tested on: KLH antigen-specific T cells; experiment: KLH immunization of mice, ex vivo restimulation of T cells; assay type: in vivo, mouse
Source text: Mice were immunized with keyhole limpet hemocyanin (KLH) and treated with EXAMPLE A or vehicle control.

Structure (SMILES): CN(C)CC[C@H](CSc1ccccc1)Nc1ccc(S(=O)(=O)NC(=O)c2ccc(N3CCN(Cc4ccccc4-c4ccc(Cl)cc4)CC3)cc2)cc1[N+](=O)[O-] [EXAMPLE A, N-(4-(4-((4′-chloro(1,1′-biphenyl)-2-yl)methyl)piperazin-1-yl)benzoyl)-4-(((1R)-3-(dimethylamino)-1-((phenylsulfanyl)methyl)propyl)amino)-3-nitrobenzenesulfonamide]
- proliferation of activated B lymphocytes upon lipopolysaccharide stimulation (activated B lymphocytes): inhibited in a concentration-dependent manner
- paw swelling ([1]; FIG. 1): inhibition of arthritis; also recorded: reduction in mouse paw swelling
- arthritis as assessed by MAS (mean arthritic score) ([1]; FIG. 2): inhibition of arthritis
- proliferation of activated T lymphocytes in a mixed-lymphocyte reaction (MLR) (activated T lymphocytes): inhibited in a concentration-dependent manner
- mouse bone volume (mouse ankles): increase in mouse bone volume
- responsiveness of T cells spared after treatment ([2]; concavalin A stimulation): responsive to concavalin A
- proliferation of KLH antigen-specific T cells on restimulation ex vivo ([2]; mice immunized with KLH and treated, versus vehicle control): significant inhibition of proliferation
